Numbers after ± are expanded uncertainties.
Details: Crystal

| Normal melting temperature [°C] | Compound |
| --- | --- |
| 146.23 ± 1.2 | Cc1ncc[nH]1 [2-methylimidazole] |
| 5.01 ± 0.62 | COC(=O)OC [dimethyl carbonate] |
| 80.81 ± 1.2 | O=C(Oc1ccccc1)Oc1ccccc1 [diphenyl carbonate] |
| 23.36 ± 0.62 | CCCCCCCCCCCCO [dodecan-1-ol] |
